Counter-ions that a name gives are not always drawn. Like-named read-outs stand apart in the source and are kept apart here.
Experiments:
[1] = test system: K562 human erythroleukemia; assay: MTT dose response cytotoxicity, K562 (Table 1); format: cell-based; conditions: read-out: DRUG IC50
Method: (§1) Cytotoxicity experiments on AHVB were performed as direct comparisons with vincristine and navelbine in order to assess its inherent antineoplastic profile against a variety of tumour cell types relative to other relevant vinca alkaloids. The cytotoxicity of AHVB was investigated in vitro against a panel of tumour cell lines of varying lineage in order to determine the specificity of its antitumour activity with respect to cell type. The tumour lines studied were P388 lymphocytic leukemia (a murine lymphocytic leukemia), Noble (Nb) rat U17 lymphoma, MCF7 human breast carcinoma, H460 human non-small cell lung carcinoma, K562 human erythrokeukemia and LS180 human colon carcinoma based on established NCI in vitro new anticancer drug cytotoxicity screening protocols.
(§2) Standard dose response cytotoxicity assays (R. Mosmass, J. Immunol. Meth., 65:55-64, 1983) were utilized to determine the IC50 (drug concentration required to induce 50% inhibition of tumour cell growth) for vincristine, navelbine and AHVB. The indicated cell lines were obtained from either the ATCC or NCI tumor repository and were cultured in tissue culture media by standard techniques well known to those skilled in the art, prior to dilution to a defined cell concentration required for the studies in 96 well plates.
(§3) A wide range of drug concentrations were exposed to tumour cells growing at log phase in 96-well microtitre plates. Cell concentrations depended on the cell line as well as the length of time to be cultured. Typically, P388 cells were plated at a concentration of 30,000, 2,000 and 750 cells per well for studies lasting 1, 3 and 7 days, respectively MCF7 cells were plated at a concentration of 7,000 and 1,500 cells per well for studies lasting 3 and 7 days, respectively. H460 cells were plated at a concentration of 2,500 and 1,000 cells per well for studies lasting 3 and 7 days, respectively. K562 cells were plated at a concentration of 1,500 and 10,000 cells per well for studies lasting 1 and 3 days, respectively. LS180 cells were plated at a concentration of 5,000 and […] cells per well for studies lasting 3 and 7 days, respectively. After plating all cell lines were incubated (CO2 incubator at 37° C., 5% CO2) for 24 hours prior to addition of the cytotoxic agent (See Table 1). Subsequently the plates were incubated for the indicated time period. At specified times, cells were washed and subsequently exposed to the dye inclusion marker MTT (3-(4,5-dimethylthiazol-2-yl)-2,5diphenyl tetrazolium), which accumulated into viable cells. MTT was added to the cells at a final concentration of 50 μg per well. After a 4 hour incubation, the cells were washed free of media and unreacted MTT, prior to addition of DMSO which was required to solubilize the insoluble formazan precipitate that formed in viable cells. After the sample was mixed through repeated pipetting, the colored product was measured using a plate reader operating at 570 nm. The absorbance values obtained for cells cultured in the absence of drug was assumed to represent 100% viability. Experiments were repeated to substantiate any differences noted between […] and other vinca alkaloids.

[2] = test system: MCF7 human breast carcinoma; assay: MTT dose response cytotoxicity, MCF7 (Table 1); format: cell-based; conditions: read-out: DRUG IC50
Method: as §1, §2, §3

Nb2-U17 lymphoma = Nb2-U17 lymphoma transplant efficacy in Nb rats (FIGS. 2-3); format: in vivo, rat; conditions: for anti-tumour effect at 50% of maximum tolerated dose, relative potency: half subacutely toxic dose, single i.p. (AHVB 1.5, navelbine 1.0, vincristine 0.35 mg/kg); for time to regression of tumours to essential non-palpability: single i.p. subacutely toxic dose (AHVB 3.0, navelbine 2.0, vincristine 0.7 mg/kg); for recurrence of tumours after day 10 / time after which most of the lost animal weight was regained: single i.p. subacutely toxic dose, Nb2-U17 rats
From the text: The U17 cell line was originally derived from a transplantable malignant lymphoma that arose spontaneously in male Noble rats (British Columbia Cancer Research center Joint Animal Breeding Facility with parents obtained from the National Institutes of Health, Bethesda, Md.). The cell line is prolactin dependent and can readily be cultured in vitro. U17 derived solid tumours are generated by subcutaneous injection (via the trocar method) of a small (2 mm^2) piece of tumour tissue obtained from male Noble rat. Tumour tissue used for the implants arose two weeks after injection of 5×10^6 U17 cells (from culture) subcutaneously in the nape of the neck. For assessing the anti-tumour activity of AHVB, tumour bearing animals (2-4 gm tumours) were given a single treatment of drug and tumour size was measured as a function of time following treatment. The anti-tumour activity was assessed at a series of different doses in order to determine the maximum therapeutic dose of AHVB. Comparative studies between vincristine, vinblastine and AHVB were performed.
Cultures of the non-metastatic, pre-T Nb2 lymphoma line originally developed at The University of British Columbia and designated Nb2-U17 (Anticancer Research 14:2485-2492, 1994), and are available from the British Columbia Cancer Research Center. Cells from exponentially growing Nb2-U17 suspension cultures were injected subcutaneously into methoxyflurane-anesthetized, mature male Nb rats (5 rats; 310-380 grams; 5×10^6 cells/rat in 1 ml of culture medium) at the nape of the neck using a 1.5" 20-gauge needle. At about 3 weeks, when the tumours reached a size of 4-7 cm (length+width), the animals were sacrificed and the tumours used for transplantation as described below.
A tumour from a rat was excised, minced and the tumour tissue was put into trocars (2", 13 gauge). The tissue samples were implanted subcutaneously in the nape of the neck of methoxyflurane-anesthetized male Nb rats (248-404 grams; 1 trocar per rat). This procedure was repeated 5 times to get a total of 60 tumour-bearing rats to be used for efficacy studies of the 3 drugs.
When the tumours were well established (1.5-2 weeks later), three separate groups of 20 rats, as closely matched as possible in terms of both tumour weight and rat weight, were selected for administration of the three test articles (i.e. one group for each test article).
Vincristine was administered to rats weighing 281-384 grams, bearing tumours weighing 6.3-16.3 grams. Navelbine was administered to rats weighing 274-389 grams bearing tumours weighing 9.1-23.3 grams. AHVB was administered to rats weighing 303-400 grams, bearing tumours weighing 7.9-25.9 grams. Tumour weights were estimated using the hemi-ellipsoid model (weight in grams=[…] in cm).
The oncolytic effects of each of the three drugs were assessed at a subacutely toxic dose, determined for each drug in preliminary studies using non-tumour-bearing, mature male Nb rats, i.e. 3.0, 2.0 and 0.7 mg/kg for […], navelbine and vincristine, respectively as illustrated in FIG. 2. In addition, each drug was assessed at 50% and 25% of its subacutely toxic dose. Five tumour-bearing rats were used to evaluate the effect at each dose level. The drugs were administered intraperitoneally as a single bolus in a volume of 0.19-0.31 ml, as indicated by the weight of the animals. To this end, drug preparations were diluted to appropriate concentrations using sparged saline adjusted with acetic acid to pH 4.2. For each drug, a group of 5 control rats received an intraperitoneal injection of the equivalent amount of saline (pH 4.2). The tumour-bearing rats were organized in the following groups:
Following administration of the test articles, the animals; weight and tumour size (using calipers) were determined daily until the tumour reached an estimated weight of 35 grams, or started to ulcerate, at which times the animals were sacrificed (by carbondioxide inhalation) and subjected to necropsy. […]

[3] = 24 h, K562, exposure time 1 day
[4] = 72 h, K562, exposure time 3 days
[5] = 72 h, MCF7, exposure time 3 days
[6] = 168 h, MCF7, exposure time 7 days

Row | SMILES | IC50 ([1]; K562, 24 h) [nM] | IC50 ([1]; K562, 72 h) [nM] | IC50 ([2]; MCF7, 72 h) [nM] | IC50 ([2]; MCF7, 168 h) [nM] | anti-tumour effect at 50% of maximum tolerated dose, relative potency (Nb2-U17 lymphoma) | time to regression of tumours to essential non-palpability (Nb2-U17 lymphoma) [days] | recurrence of tumours after day 10 (Nb2-U17 lymphoma) | time after which most of the lost animal weight was regained (Nb2-U17 lymphoma) | IC50 [1, 3] [nM] | IC50 [1, 4] [nM] | IC50 [2, 5] [nM] | IC50 [2, 6] [nM]
1 | CCC1=CC2CN(CCc3c([nH]c4ccccc34)C(C(=O)OC)(c3cc4c(cc3OC)N(C)C3C(O)(C(=O)OC)C(OC(C)=O)C5(CC)C=CCN6CCC43C65)C2)C1 (centres unmarked) [AHVB, 3',4'-anhydrovinblastine] | > 50 | 18.8 ± 8.8 | > 2500 | 31.3 ± 12.4 | less potent than vincristine | ≤ 5 | occurred to about the same extent | about 17 days |  |  |  | 
2 | CC[C@]1(O)C[C@H]2CN(CCc3c([nH]c4ccccc34)[C@@](C(=O)OC)(c3cc4c(cc3OC)N(C=O)[C@H]3[C@@](O)(C(=O)OC)[C@H](OC(C)=O)[C@]5(CC)C=CCN6CC[C@]43[C@@H]65)C2)C1 [vincristine, Sulfate of 22-oxovincaleukoblastine] |  |  |  |  |  | ≤ 5 | recurrence of tumours was not observed | about 17 days | > 50 | 1.5 ± 0.4 | > 2500 | 2.6 ± 1.6
3 | CCC1=C[C@@H]2CN(C1)Cc1c([nH]c3ccccc13)[C@@](C(=O)OC)(c1cc3c(cc1OC)N(C)[C@H]1[C@@](O)(C(=O)OC)[C@H](OC(C)=O)[C@]4(CC)C=CCN5CC[C@]31[C@@H]54)C2 [navelbine, 3',4'-didehydro-4'-deoxy-C'-norvincaleukoblastine-di-L-tartrate] |  |  |  |  | less potent than AHVB | ≤ 5 | occurred to about the same extent | about 17 days | > 50 | 2.5 ± 2.2 | > 2500 | 2.6 ± 1.6

— patent publication US6011041A, “Use of anhydrovinblastine” (priority 1996, dated 2000)
